Tests used:
IL-6 in A549 cells = test: Cell-based IL-6 ELISA assay in IL-1beta stimulated A549 cells; settings: 2 ng/ml human IL-1beta overnight
Method: The cell-based assays is based on IL-6 ELISA quantification. Briefly, A549 cells are cultured in DMEM with 10% FBS medium. When cells reach 80% confluence they are trypsin treated and seeded 180 ul/well in 96-well plate at 2.5×10^4 cells/well. Then, 20 ul of compound serial dilutions (starting at 10 uM, 10 points) are added to the cell plate; incubate for 30 min at 37 C and stimulated with 2 ng/ml human IL-1beta 37 C, 5% CO2 overnight. The next day 100 ul of cell supernatant per well are analyzed on a Human IL-6 Quantikine ELISA kit from R&D Systems.

IRAK4 = IRAK4 (Homo sapiens (Human), UniProt Q9NWZ3); test: IRAK-4 AlphaScreen biochemical kinase assay; settings: 1 nM IRAK4, 1 mM ATP, 3.5 h at RT
Chain of IRAK4 (Q9NWZ3 whole entry, species assumed): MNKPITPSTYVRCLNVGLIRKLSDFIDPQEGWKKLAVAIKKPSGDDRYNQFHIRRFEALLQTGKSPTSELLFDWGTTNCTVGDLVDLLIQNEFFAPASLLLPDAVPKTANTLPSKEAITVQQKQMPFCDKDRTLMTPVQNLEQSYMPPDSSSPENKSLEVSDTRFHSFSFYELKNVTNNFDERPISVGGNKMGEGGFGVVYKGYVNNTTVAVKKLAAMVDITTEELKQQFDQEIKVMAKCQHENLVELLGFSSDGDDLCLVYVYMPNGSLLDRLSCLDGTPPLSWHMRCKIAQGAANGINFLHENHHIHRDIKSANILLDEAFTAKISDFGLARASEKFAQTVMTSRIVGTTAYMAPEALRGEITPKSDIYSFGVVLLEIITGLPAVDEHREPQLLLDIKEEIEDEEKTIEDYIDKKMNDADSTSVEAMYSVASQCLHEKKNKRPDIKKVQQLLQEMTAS
In short: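 AlphaScreen read-out: streptavidin beads bind the biotinylated peptide and protein A beads bind the anti-phosphothreonine antibody, so energy transfer reports phosphorylation of the peptide. The kinase is human IRAK-4.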

SMILES: C[C@H](N)c1cccc(-c2cc(-c3nc(C#N)cs3)c3cnn(-c4cccc(CO)n4)c3c2)n1 [Example 369, (S)-2-(6-(6-(1-aminoethyl)pyridin-2-yl)-1-(6-(hydroxymethyl)pyridin-2-yl)-1H-indazol-4-yl)thiazol-4-carbonitrile]
- EC50 (IL-6 in A549 cells): ≤ 1000 nM
- IC50 (IRAK4): < 100 nM

SMILES: N[C@H](c1cccc(-c2ccc3cnn(-c4cccc(CO)n4)c3c2)n1)C1CCC1 [Example 422, (S)-(6-(6-(6-(amino(cyclobutyl)methyl)pyridin-2-yl)-1H-indazol-1-yl)pyridin-2-yl)methanol]
- EC50 (IL-6 in A549 cells): ≤ 1000 nM
- IC50 (IRAK4): < 100 nM

SMILES: CC[C@H](F)[C@H](N)c1cccc(-c2cc(OCCOC)c3cnn(-c4cccc(CO)n4)c3c2)n1 [Example 454, (6-(6-(6-((1R,2S)-1-amino-2-fluorobutyl)pyridin-2-yl)-4-(2-methoxyethoxy)-1H-indazol-1-yl)pyridin-2-yl)methanol]
- EC50 (IL-6 in A549 cells): ≤ 1000 nM
- IC50 (IRAK4): < 100 nM

SMILES: CC(O)c1cccc(-n2ncc3ccc(-c4cccc([C@H](C)N)n4)cc32)n1 (single isomer, unassigned) [Example 416]
- EC50 (IL-6 in A549 cells): ≤ 1000 nM
- IC50 (IRAK4): < 100 nM

SMILES: C[C@H](N)c1cccc(-c2cc(-c3nc(C(F)(F)F)co3)c3cnn(-c4cccc(CO)n4)c3c2)n1 [Example 374, (S)-(6-(6-(6-(1-aminoethyl)pyridin-2-yl)-4-(4-(trifluoromethyl)oxazol-2-yl)-1H-indazol-1-yl)pyridin-2-yl)methanol]
- EC50 (IL-6 in A549 cells): ≤ 1000 nM
- IC50 (IRAK4): < 100 nM

SMILES: C=C(C)C[C@H](N)c1cccc(-c2ccc3cnn(-c4cccc(CO)n4)c3c2)n1 [Example 436, (S)-(6-(6-(6-(1-amino-3-methylbut-3-en-1-yl)pyridin-2-yl)-1H-indazol-1-yl)pyridin-2-yl)methanol]
- EC50 (IL-6 in A549 cells): ≤ 1000 nM
- IC50 (IRAK4): < 100 nM

SMILES: NC(CO)c1cccc(-c2ccc3cnn(-c4cccc(CO)n4)c3c2)n1 (stereo not shown) [Example 530, 2-amino-2-(6-(1-(6-(hydroxymethyl)pyridin-2-yl)-1H-indazol-6-yl)pyridin-2-yl)ethanol]
- EC50 (IL-6 in A549 cells): ≤ 1000 nM
- IC50 (IRAK4): 100 to 1000 nM

SMILES: CC(N)CNC(=O)c1cc(-c2cccc([C@H](C)N)n2)cc2c1cnn2-c1cccc(CO)n1 (stereo partly drawn) [Example 548, 6-(6-((S)-1-aminoethyl)pyridin-2-yl)-N-(2-aminopropyl)-1-(6-(hydroxymethyl)pyridin-2-yl)-1H-indazole-4-carboxamide]
- EC50 (IL-6 in A549 cells): 1000 to 10000 nM
- IC50 (IRAK4): 100 to 1000 nM

SMILES: CCC[C@H](N)c1cccc(-c2cc(C3=CCOCC3)c3cnn(-c4cccc(CO)n4)c3c2)n1 [Example 494, (S)-(6-(6-(6-(1-aminobutyl)pyridin-2-yl)-4-(3,6-dihydro-2H-pyran-4-yl)-1H-indazol-1-yl)pyridin-2-yl)methanol]
- EC50 (IL-6 in A549 cells): ≤ 1000 nM
- IC50 (IRAK4): < 100 nM

SMILES: NC(CC1CC1)c1cccc(-c2ccc3cnn(-c4cccc(CO)n4)c3c2)n1 (stereo not shown) [Example 535, (6-(6-(6-(1-amino-2-cyclopropylethyl)pyridin-2-yl)-1H-indazol-1-yl)pyridin-2-yl)methanol]
- EC50 (IL-6 in A549 cells): ≤ 1000 nM
- IC50 (IRAK4): < 100 nM

SMILES: C[C@H](N)c1cccc(-c2cc(C3=NCCO3)c3cnn(-c4cccc(CO)n4)c3c2)n1 [Example 524, (S)-(6-(6-(6-(1-aminoethyl)pyridin-2-yl)-4-(4,5-dihydrooxazol-2-yl)-1H-indazol-1-yl)pyridin-2-yl)methanol]
- EC50 (IL-6 in A549 cells): ≤ 1000 nM
- IC50 (IRAK4): < 100 nM

SMILES: N[C@@H](CCC(F)(F)F)c1cccc(-c2ccc3cnn(-c4cccc(CO)n4)c3c2)n1 [Example 427, (S)-(6-(6-(6-(1-amino-4,4,4-trifluorobutyl)pyridin-2-yl)-1H-indazol-1-yl)pyridin-2-yl)methanol]
- EC50 (IL-6 in A549 cells): ≤ 1000 nM
- IC50 (IRAK4): < 100 nM

SMILES: C[C@H](N)c1cccc(-c2cc(-c3ccsn3)c3cnn(-c4cccc(CO)n4)c3c2)n1 [Example 370, (S)-(6-(6-(6-(1-aminoethyl)pyridi9n-2-yl)-4-(isothiazol-3-yl)-1H-indazol-1-yl)pyridin-2-yl)methanol]
- EC50 (IL-6 in A549 cells): ≤ 1000 nM
- IC50 (IRAK4): < 100 nM

SMILES: CCC[C@H](N)c1cccc(-c2cc(N3CCCC3)c3cnn(-c4cccc(CO)n4)c3c2)n1 [Example 342, (S)-(6-(6-(6-(1-aminobutyl)pyridin-2-yl)-4-(pyrrolidin-1-yl)-1H-indazol-1-yl)pyridin-2-yl)methanol]
- EC50 (IL-6 in A549 cells): ≤ 1000 nM
- IC50 (IRAK4): < 100 nM

SMILES: CCC[C@H](N)c1cccc(-c2cc(N3CC(C)OC(C)C3)c3cnn(-c4cccc(CO)n4)c3c2)n1 (stereo partly drawn) [Example 335, (6-(6-(6-((S)-1-aminobutyl)pyridin-2-yl)-4-(2,6-dimethylmorpholino)-1H-indazol-1-yl)pyridin-2-yl)methanol]
- EC50 (IL-6 in A549 cells): ≤ 1000 nM
- IC50 (IRAK4): < 100 nM

SMILES: CCC[C@H](N)c1cccc(-c2cc(N3CC(C(=O)O)C3)c3cnn(-c4cccc(CO)n4)c3c2)n1 [Example 348, (S)-1-(6-(6-(1-aminobutyl)pyridin-2-yl)-1-(6-(hydroxymethyl)pyridin-2-yl)-1H-indazol-4-yl)azetidine-3-carboxylic acid]
- EC50 (IL-6 in A549 cells): ≤ 1000 nM
- IC50 (IRAK4): < 100 nM

SMILES: CCC[C@H](N)c1cccc(-c2cc(OCC)c3cnn(-c4nccc(C(F)(F)F)n4)c3c2)n1 [Example 505, (S)-1-(6-(4-ethoxy-1-(4-(trifluoromethyl)pyrimidin-2-yl)-1H-indazol-6-yl)pyridin-2-yl)butan-1-amine]
- EC50 (IL-6 in A549 cells): ≤ 1000 nM
- IC50 (IRAK4): < 100 nM

SMILES: C[C@H](N)c1cccc(-c2cc(-c3nc(C(F)(F)F)cs3)c3cnn(-c4cccc(CO)n4)c3c2)n1 [Example 378, (S)-(6-(6-(6-(1-aminoethyl)pyridin-2-yl)-4-(4-(trifluoromethyl)thiazol-2-yl)-1H-indazol-1-yl)pyridin-2-yl)methanol]
- EC50 (IL-6 in A549 cells): 1000 to 10000 nM
- IC50 (IRAK4): < 100 nM

SMILES: NC(c1cccc(-c2ccc3cnn(-c4cccc(CO)n4)c3c2)n1)C1CC1 (stereo not shown) [Example 538, (6-(6-(6-(amino(cyclopropyl)methyl)pyridin-2-yl)-1H-indazol-1-yl)pyridin-2-yl)methanol]
- EC50 (IL-6 in A549 cells): ≤ 1000 nM
- IC50 (IRAK4): < 100 nM

SMILES: CCC[C@H](N)c1cccc(-c2ccc3cnn(-c4cccc(C=O)n4)c3c2)n1 [Example 450, (S)-6-(6-(6-(1-aminobutyl)pyridin-2-yl)-1H-indazol-1-yl)picolinaldehyde]
- EC50 (IL-6 in A549 cells): 1000 to 10000 nM
- IC50 (IRAK4): < 100 nM

SMILES: CC[C@H](N)c1cccc(-c2ccc3cnn(-c4cccc(C(F)F)n4)c3c2)n1 [Example 539, (S)-1-(6-(1-(6-(difluoromethyl)pyridin-2-yl)-1H-indazol-6-yl)pyridin-2-yl)propan-1-amine]
- EC50 (IL-6 in A549 cells): 1000 to 10000 nM
- IC50 (IRAK4): < 100 nM

SMILES: Cc1nc(-c2cc(-c3cccc([C@H](C)N)n3)cc3c2cnn3-c2cccc(CO)n2)sc1C [Example 377, (S)-(6-(6-(6-(1-aminoethyl)pyridin-2-yl)-4-(4,5-dimethylthiazol-2-yl)-1H-indazol-1-yl)pyridin-2-yl)methanol]
- EC50 (IL-6 in A549 cells): ≤ 1000 nM
- IC50 (IRAK4): < 100 nM

SMILES: C[C@H](N)c1cccc(-c2cc(-c3ccccc3)c3cnn(-c4cccc(CO)n4)c3c2)n1 [Example 371, (S)-(6-(6-(6-(1-aminoethyl)pyridin-2-yl)-4-phenyl-1H-indazol-1-yl)pyridin-2-yl)methanol]
- EC50 (IL-6 in A549 cells): ≤ 1000 nM
- IC50 (IRAK4): < 100 nM

SMILES: CCC[C@H](N)c1cccc(-c2cc(N3CC(C)(C)C3)c3cnn(-c4cccc(CO)n4)c3c2)n1 [Example 340, (S)-(6-(6-(6-(1-aminobutyl)pyridin-2-yl)-4-(3,3-dimethylazetidin-1-yl)-1H-indazol-1-yl)pyridin-2-yl)methanol]
- EC50 (IL-6 in A549 cells): ≤ 1000 nM
- IC50 (IRAK4): < 100 nM

SMILES: COCCCOc1cc(-c2cccc([C@H](C)N)n2)cc2c1cnn2-c1cccc(CO)n1 [Example 458, (S)-(6-(6-(6-(1-aminoethyl)pyridin-2-yl)-4-(3-methoxypropoxy)-1H-indazol-1-yl)pyridin-2-yl)methanol]
- EC50 (IL-6 in A549 cells): ≤ 1000 nM
- IC50 (IRAK4): < 100 nM

SMILES: CCC[C@H](N)c1cccc(-c2cc(N3CCCC(F)(F)C3)c3cnn(-c4cccc(CO)n4)c3c2)n1 [Example 347, (S)-(6-(6-(6-(1-aminobutyl)pyridin-2-yl)-4-(3,3-difluoropiperidin-1-yl)-1H-indazol-1-yl)pyridin-2-yl)methanol]
- EC50 (IL-6 in A549 cells): ≤ 1000 nM
- IC50 (IRAK4): < 100 nM

SMILES: CCC[C@H](NC)c1cccc(-c2ccc3cnn(-c4cccc(CO)n4)c3c2)n1 [Example 527, (S)-(6-(6-(6-(1-(methylamino)butyl)pyridin-2-yl)-1H-indazol-1-yl)pyridin-2-yl)methanol]
- EC50 (IL-6 in A549 cells): ≤ 1000 nM
- IC50 (IRAK4): < 100 nM

SMILES: CCC(O)C(N)c1cccc(-c2ccc3cnn(-c4cccc(CO)n4)c3c2)n1 (stereo not shown) [Example 507, 1-amino-1-(6-(1-(6-(hydroxymethyl)pyridin-2-yl)-1H-indazol-6-yl)pyridin-2-yl)butan-2-ol]
- EC50 (IL-6 in A549 cells): ≤ 1000 nM
- IC50 (IRAK4): < 100 nM

SMILES: CCC[C@H](N)c1cccc(-c2ccc3cnn(-c4cccc([C@H](O)C(F)(F)F)n4)c3c2)n1 [Example 452, (S)-1-(6-(6-(6-((S)-1-aminobutyl)pyridin-2-yl)-1H-indazol-1-yl)pyridin-2-yl)-2,2,2-trifluoroethanol]
- EC50 (IL-6 in A549 cells): 1000 to 10000 nM
- IC50 (IRAK4): < 100 nM

SMILES: C[C@H](N)c1cccc(-c2cc(-c3nccs3)c3cnn(-c4cccc(CO)n4)c3c2)n1 [Example 379, (S)-(6-(6-(6-(1-aminoethyl)pyridin-2-yl)-4-(thiazol-2-yl)-1H-indazol-1-yl)pyridin-2-yl)methanol]
- EC50 (IL-6 in A549 cells): 1000 to 10000 nM
- IC50 (IRAK4): < 100 nM

SMILES: CCC[C@H](N)c1cccc(-c2cc(C3=CCN(C)CC3)c3cnn(-c4cccc(CO)n4)c3c2)n1 [Example 423, (S)-(6-(6-(6-(1-aminobutyl)pyridin-2-yl)-4-(1-methyl-1,2,3,6-tetrahydropyridin-4-yl)-1H-indazol-1-yl)pyridin-2-yl)methanol]
- EC50 (IL-6 in A549 cells): ≤ 1000 nM
